Measurements: patent US8071558B2, “Application of D-psicose to suppression of abnormal circadian increase in blood glucose level” (Rare Sugar Production Technical Research Laboratories, LLC., priority 2005, dated 2011)

How the values were obtained:
Male Wistar rats [1] = assay: Oral glucose tolerance test: influence of D-psicose on the reaction of increasing blood glucose; assay type: in vivo, rat; settings: for blood glucose level compared with single administration of D-glucose: minutes after administration; for increase of the blood glucose level: oral D-glucose 2 g/kg with test sugar 0.32 g/kg (16% of D-glucose) simultaneously
Experimental: Male Wistar rats of age 6 months were fed ad libitum under a condition that the bright cycle was at a temperature of 25° C. and a humidity of 50 to 70% from 8:00 am to 20:00 pm, for preliminary feeding for one week. On the day before the experiment, the rats were fasted for 12 hours and subsequently orally given D-glucose at 2 g/kg (in the form of 50% glucose solution) using a probe. Blood was drawn before the dosing and 30, 60, 90, 120, 150 and 180 minutes after the dosing. Blood glucose level was measured with a blood glucose meter. Alternatively, D-fructose or D-psicose at 0.32 g/kg (at 16% of D-glucose) was simultaneously given with D-glucose at 2 g/kg. In the same manner, blood glucose level was measured. Based on the resulting blood glucose levels, the area under the curve of blood glucose level (ΔAUC) was calculated.

sucrase = biological target: T1, sucrase (Rattus norvegicus, UniProt P23739); assay: Sucrose administration experiment (inhibition of sucrase in vivo), plasma glucose; settings: rats; for Plasma glucose level, 0 min: before sucrose 2 g/kg + test sugar 200 mg/kg; for Plasma glucose level, 30 min / Plasma glucose level, 60 min / Plasma glucose level, 90 min / Plasma glucose level, 120 min / ΔAUC of plasma glucose level: sucrose 2 g/kg + test sugar 200 mg/kg
T1 construct: from tissue; host or cells: small intestine of live male Wistar rats (oral sugar load)
T1 sequence (P23739 whole entry): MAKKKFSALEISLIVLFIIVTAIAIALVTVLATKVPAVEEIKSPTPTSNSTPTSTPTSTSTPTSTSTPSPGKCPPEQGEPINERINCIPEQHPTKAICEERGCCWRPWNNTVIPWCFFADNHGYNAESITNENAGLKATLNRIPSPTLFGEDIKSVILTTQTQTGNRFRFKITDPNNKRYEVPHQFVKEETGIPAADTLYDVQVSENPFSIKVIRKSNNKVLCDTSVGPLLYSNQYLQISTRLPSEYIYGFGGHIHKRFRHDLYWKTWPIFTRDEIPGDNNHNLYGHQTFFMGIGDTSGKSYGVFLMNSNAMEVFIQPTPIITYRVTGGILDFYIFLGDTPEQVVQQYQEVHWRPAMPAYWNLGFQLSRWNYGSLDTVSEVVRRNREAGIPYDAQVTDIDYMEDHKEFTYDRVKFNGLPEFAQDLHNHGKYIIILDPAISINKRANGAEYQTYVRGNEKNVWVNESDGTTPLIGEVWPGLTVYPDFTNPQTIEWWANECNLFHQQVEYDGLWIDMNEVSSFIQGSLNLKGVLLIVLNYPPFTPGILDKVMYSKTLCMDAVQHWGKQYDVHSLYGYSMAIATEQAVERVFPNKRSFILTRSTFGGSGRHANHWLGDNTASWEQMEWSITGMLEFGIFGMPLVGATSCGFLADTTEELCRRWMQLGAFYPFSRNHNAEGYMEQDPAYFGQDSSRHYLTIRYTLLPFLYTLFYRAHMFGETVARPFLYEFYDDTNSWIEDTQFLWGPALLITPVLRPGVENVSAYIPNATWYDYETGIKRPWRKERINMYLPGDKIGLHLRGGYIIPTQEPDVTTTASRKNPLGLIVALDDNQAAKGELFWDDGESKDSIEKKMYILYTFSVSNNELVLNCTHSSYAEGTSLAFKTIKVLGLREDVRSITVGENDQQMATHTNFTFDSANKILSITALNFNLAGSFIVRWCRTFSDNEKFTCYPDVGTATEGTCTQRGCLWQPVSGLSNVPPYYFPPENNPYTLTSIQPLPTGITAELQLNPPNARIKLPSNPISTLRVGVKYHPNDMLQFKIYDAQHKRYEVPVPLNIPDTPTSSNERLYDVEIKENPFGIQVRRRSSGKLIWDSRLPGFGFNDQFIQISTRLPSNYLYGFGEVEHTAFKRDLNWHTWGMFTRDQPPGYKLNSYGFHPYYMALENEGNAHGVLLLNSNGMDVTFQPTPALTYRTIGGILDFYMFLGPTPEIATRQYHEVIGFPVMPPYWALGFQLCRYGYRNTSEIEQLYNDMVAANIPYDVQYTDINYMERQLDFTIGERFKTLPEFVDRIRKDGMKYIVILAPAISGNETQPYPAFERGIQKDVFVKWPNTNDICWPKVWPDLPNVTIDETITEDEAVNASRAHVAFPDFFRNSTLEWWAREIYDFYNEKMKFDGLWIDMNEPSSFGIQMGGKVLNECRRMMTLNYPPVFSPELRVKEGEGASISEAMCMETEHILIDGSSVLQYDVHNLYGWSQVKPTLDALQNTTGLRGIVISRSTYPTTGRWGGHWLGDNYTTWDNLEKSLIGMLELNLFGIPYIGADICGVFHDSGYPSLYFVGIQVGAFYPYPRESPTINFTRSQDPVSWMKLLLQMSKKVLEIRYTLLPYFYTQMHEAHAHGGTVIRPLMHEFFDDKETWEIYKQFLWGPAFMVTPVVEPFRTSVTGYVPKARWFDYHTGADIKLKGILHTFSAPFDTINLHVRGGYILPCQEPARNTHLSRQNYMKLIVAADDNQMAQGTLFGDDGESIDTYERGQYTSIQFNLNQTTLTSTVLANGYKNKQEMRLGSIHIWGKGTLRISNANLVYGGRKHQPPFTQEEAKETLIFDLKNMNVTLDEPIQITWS
Experimental: Sucrose 2 g/kg+L-arabinose 200 mg/kg (SA)
Sucrose 2 g/kg+D-xylose 200 mg/kg (SX)
Sucrose 2 g/kg+D-fructose 200 mg/kg (SF)
Sucrose 2 g/kg+D-psicose 200 mg/kg (SP)
Sucrose 2 g/kg+(fructose 150 mg/kg+psicose 50 mg/kg) (SFP)

maltase = assay: Maltose administration experiment (inhibition of maltase in vivo), plasma glucose; design: species or system rat; settings: rats; for Plasma glucose level, 0 min: before maltose 2 g/kg + test sugar 200 mg/kg; for Plasma glucose level, 30 min / Plasma glucose level, 60 min / Plasma glucose level, 90 min / Plasma glucose level, 120 min / ΔAUC of plasma glucose level: maltose 2 g/kg + test sugar 200 mg/kg
Experimental: (§1) Thirty-six male Wistar rats of age 6 months are divided into 6 groups. The following sugars were given to the rats in the individual groups after 12-hour fasting. Before the administration and 30, 60, 90, 120 and 180 minutes after the administration, blood is drawn from the tail vein, to assay plasma glucose and insulin concentration.
2. Maltose 2 g/kg+L-arabinose 200 mg/kg (MA)
3. Maltose 2 g/kg+D-xylose 200 mg/kg (MX)
4. Maltose 2 g/kg+D-fructose 200 mg/kg (MF)
5. Maltose 2 g/kg+D-psicose 200 mg/kg (MP)
6. Maltose 2 g/kg+(fructose 150 mg/kg+psicose 50 mg/kg) (MFP)
(§2) Before the administration and 30, 60, 90, 120 and 180 minutes after the administration, plasma glucose level was assayed. The plasma glucose level 180 minutes later was used to calculate the area under the curve of plasma glucose level (ΔAUC).

Male Wistar rats [2] = assay: Soluble starch administration experiment, plasma glucose; assay type: in vivo, rat; settings: for Plasma glucose level, 0 min: before soluble starch 2 g/kg + test sugar 200 mg/kg; for Plasma glucose level, 30 min / Plasma glucose level, 60 min / Plasma glucose level, 90 min / Plasma glucose level, 120 min / ΔAUC of plasma glucose level: soluble starch 2 g/kg + test sugar 200 mg/kg
Experimental: as §1
1. Soluble starch 2 g/kg (SS)
2. Soluble starch 2 g/kg+L-arabinose 200 mg/kg (SSA)
3. Soluble starch 2 g/kg+D-xylose 200 mg/kg (SSX)
4. Soluble starch 2 g/kg+D-fructose 200 mg/kg (SSF)
5. Soluble starch 2 g/kg+D-psicose 200 mg/kg (SSP)
6. Soluble starch 2 g/kg+(fructose 150 mg/kg+psicose 50 mg/kg) (SSFP)
as §2

[3] = system: diabetic rats (fatty Zucker rats); settings: cited from earlier work
Male Wistar rats [4] = assay: Influence of D-psicose diet on liver weight and composition (16-week feeding); assay type: in vivo, rat; settings: 16 weeks
Experimental: Twenty-four male Wistar rats of age 3 weeks were fed ad libitum under a condition that the bright cycle was at a temperature of 25° C. and a humidity of 50 to 70% from 8:00 am to 20:00 pm, for preliminary feeding for one week. Subsequently, the rats were divided into 4 groups, each group consisting of 6 rats. The groups were defined a high fat/D-psicose diet (HF-P) group; a high fat/cellulose diet (HF-C) group; a low fat/D-psicose diet (LF-P) group; and a low fat/cellulose diet (LF-C) group. 20% beef fat and 5% soybean oil were used to prepare the high fat diets. 5% soybean oil was used to prepare the low fat diets. 5% D-psicose or cellulose was added to the individual diets. These rats were fed these experimental diets and water ad libitum for 16 weeks. On the last day of the experiment, the rats were decapitated and sacrificed to death, from which liver, flounder muscle and intraperitoneal fat tissues were resected. Glycogen, neutral fat and protein were assayed in the liver, while glycogen content was assayed in the flounder muscle. [table]

Male Wistar rats [5] = assay: Intra-day variation of plasma glucose concentration in rats fed 5% sugar diets; assay type: in vivo, rat; settings: 5% in diet, fed twice daily for 8 weeks
Text: Forty male Wistar rats of age 3 weeks were preliminarily fed for one week and then divided into 4 groups. Then, a control diet (AIN-76A), and the control diet with addition of 5% D-fructose, the control diet with addition of 5% D-psicose, and the control diet with addition of 5% psico-rare sugar were fed to the rats, twice daily (at 8 to 9 am and at 20 to 21 pm) ad libitum for 8 weeks. At 2 am, 6 am, 10 am, 14 pm, 18 pm and 22 pm on the week 7 or 8 of the feeding, blood was drawn from the tail veins of the rats. Plasma was separated from the blood to assay glucose concentration.

liver [6] = settings: in vivo; cited from earlier work
pancreatic island cells = settings: in vitro; cited from earlier work
α-glucosidase = settings: in vitro; cited from earlier work
liver [7] = settings: D-psicose added up to 20% of the weight of the feeds; cited from earlier work
[8] = D-glucose 2 g/kg + 0.32 g/kg test sugar

O=C(CO)[C@@H](O)[C@H](O)[C@H](O)CO [D-fructose]
ΔAUC of blood glucose level compared with single D-glucose administration (Male Wistar rats [1]; [8]): significantly low | blood glucose level compared with single administration of D-glucose (Male Wistar rats [1]; [8]): significantly low in 90 and 120 minutes | increase of the blood glucose level (Male Wistar rats [1]): suppressed | Plasma glucose level, 0 min (sucrase): 97 mg/dL | Plasma glucose level, 30 min (sucrase): 134 ± 13 ab mg/dl | Plasma glucose level, 60 min (sucrase): 148 ± 12 ab mg/dl | Plasma glucose level, 90 min (sucrase): 147 ± 9 ab mg/dl | Plasma glucose level, 120 min (sucrase): 141 ± 7 mg/dL | ΔAUC of plasma glucose level (sucrase): 4732 min^− mg/dl | Plasma glucose level, 0 min (maltase): 81 ± 10 mg/dL | Plasma glucose level, 30 min (maltase): 139 ± 15 mg/dL | Plasma glucose level, 60 min (maltase): 156 ± 20 ab mg/dl | Plasma glucose level, 90 min (maltase): 152 ± 10 mg/dL | Plasma glucose level, 120 min (maltase): 142 ± 12 mg/dL | ΔAUC of plasma glucose level (maltase): 7031 min^− mg/dl | Plasma glucose level, 0 min (Male Wistar rats [2]): 92 ± 4 mg/dL | Plasma glucose level, 30 min (Male Wistar rats [2]): 130 ± 15 mg/dL | Plasma glucose level, 60 min (Male Wistar rats [2]): 137 ± 21 mg/dL | Plasma glucose level, 90 min (Male Wistar rats [2]): 132 ± 13 mg/dL | Plasma glucose level, 120 min (Male Wistar rats [2]): 130 ± 13 mg/dL | ΔAUC of plasma glucose level (Male Wistar rats [2]): 4243 min^− mg/dl | reaction of increasing blood glucose via D-glucose and maltodextrin [3]: suppressed

O=C(CO)[C@H](O)[C@H](O)[C@H](O)CO [D-psicose]
increasing rate of blood glucose level compared with D-fructose (Male Wistar rats [1]; [8]): likely reduced | ΔAUC of blood glucose level compared with single D-glucose administration (Male Wistar rats [1]; [8]): significantly low | blood glucose level compared with single administration of D-glucose (Male Wistar rats [1]; [8]): significantly low in 60, 90 and 120 minutes | increase of the blood glucose level (Male Wistar rats [1]): suppressed | liver weight, effect of addition of D-psicose (Male Wistar rats [4]; 5% in diet, irrespective of the fat content, vs cellulose diet): increased | hepatic glycogen content, effect of addition of D-psicose (Male Wistar rats [4]; 5% in diet, vs cellulose diet): tended to increase | protein content per liver, effect of addition of D-psicose (Male Wistar rats [4]; 5% in diet, vs cellulose diet): significantly increased | weight of intraperitoneal fat tissues, effect of addition of D-psicose (Male Wistar rats [4]; 5% in diet, vs cellulose diet): no influence | Flounder muscle weight (Male Wistar rats [4]; high fat diet + 5% D-psicose): 210 ± 8 mg | Liver weight (Male Wistar rats [4]; high fat diet + 5% D-psicose): 9.5 ± 0.5 g | Weight of intraperitoneal fat tissues (Male Wistar rats [4]; high fat diet + 5% D-psicose): 27 ± 2 g | Flounder muscle weight (Male Wistar rats [4]; low fat diet + 5% D-psicose): 209 ± 10 mg | Liver weight (Male Wistar rats [4]; low fat diet + 5% D-psicose): 13.2 ± 0.3 g | Weight of intraperitoneal fat tissues (Male Wistar rats [4]; low fat diet + 5% D-psicose): 23 ± 1 g | Plasma glucose level, 0 min (sucrase): 89 mg/dL | increase of blood glucose level up to 60 minutes after the administration, compared with sucrose alone (sucrase; given simultaneously with sucrose): suppressed | Plasma glucose level, 30 min (sucrase): 128 ± 12 ab mg/dl | Plasma glucose level, 60 min (sucrase): 139 ± 13 ab mg/dl | Plasma glucose level, 90 min (sucrase): 150 ± 20 a mg/dl | Plasma glucose level, 120 min (sucrase): 143 ± 28 mg/dL | ΔAUC of plasma glucose level (sucrase): 5339 min^− mg/dl | Plasma glucose level, 0 min (maltase): 82 ± 8 mg/dL | action to suppress the increase of blood glucose level (maltase; given simultaneously with maltose (experiment 2)): the effect was low | Plasma glucose level, 30 min (maltase): 125 ± 21 mg/dL | Plasma glucose level, 60 min (maltase): 147 ± 16 b mg/dl | Plasma glucose level, 90 min (maltase): 146 ± 14 mg/dL | Plasma glucose level, 120 min (maltase): 132 ± 13 mg/dL | ΔAUC of plasma glucose level (maltase): 5887 min^− mg/dl | Plasma glucose level, 0 min (Male Wistar rats [2]): 91 ± 10 mg/dL | action to suppress the increase of blood glucose level (Male Wistar rats [2]; given simultaneously with soluble starch (experiment 3)): the effect was low | Plasma glucose level, 30 min (Male Wistar rats [2]): 128 ± 12 mg/dL | Plasma glucose level, 60 min (Male Wistar rats [2]): 123 ± 21 mg/dL | Plasma glucose level, 90 min (Male Wistar rats [2]): 121 ± 17 mg/dL | Plasma glucose level, 120 min (Male Wistar rats [2]): 122 ± 16 mg/dL | ΔAUC of plasma glucose level (Male Wistar rats [2]): 3344 min^− mg/dl | increment of the area under the curve of plasma glucose concentration (ΔAUC) based on 8 am, compared with control and D-fructose groups (Male Wistar rats [5]): significantly small | plasma glucose concentration compared with the control group and the D-fructose group (Male Wistar rats [5]; week 7 or 8): low throughout the day | toxicity causing the deterioration of the hepatic function (liver [6]): no toxicity | insulin secretion from pancreatic island cells (pancreatic island cells): promoted | α-glucosidase inhibition (α-glucosidase): inhibits | liver weight per body weight (liver [7]): tended to increase
